molecular target: active HPK1 (SignalChem M23-11G) (Homo sapiens (Human), UniProt Q92918); assay: HPK1 Kinase Binding Assay; settings: LanthaScreen tracer 222 / Eu-Anti GST antibody, one hour incubation at 25° C.
Procedure: A stock solution of 1 mM test compound was prepared in DMSO. The compound plate was prepared by 3-fold and 11-point serial dilutions. 0.1 μL of the compound in DMSO was transferred from the compound plate to the white 384 well polystyrene plates. The assay buffer contained 50 mM HEPES, pH 7.5, 0.01% Tween-20, 5 mM MgCl2, 0.01% BSA, and 5 mM DTT. 5 μL of 4 nM active HPK1 (SignalChem M23-11G) prepared in the buffer was added to the plate. The enzyme concentration given was based on the given stock concentration reported by the vender. 5 μl of 18 nM tracer 222 (ThermoFisher PV6121) and 4 nM LanthaScreen Eu-Anti GST antibody (ThermoFisher PV5595) were added. After one hour incubation at 25° C., the plates were read on a PHERAstar FS plate reader (BMG Labtech). Ki values were determined.

active HPK1 (SignalChem M23-11G), sequence (Q92918 1-346 limits assumed): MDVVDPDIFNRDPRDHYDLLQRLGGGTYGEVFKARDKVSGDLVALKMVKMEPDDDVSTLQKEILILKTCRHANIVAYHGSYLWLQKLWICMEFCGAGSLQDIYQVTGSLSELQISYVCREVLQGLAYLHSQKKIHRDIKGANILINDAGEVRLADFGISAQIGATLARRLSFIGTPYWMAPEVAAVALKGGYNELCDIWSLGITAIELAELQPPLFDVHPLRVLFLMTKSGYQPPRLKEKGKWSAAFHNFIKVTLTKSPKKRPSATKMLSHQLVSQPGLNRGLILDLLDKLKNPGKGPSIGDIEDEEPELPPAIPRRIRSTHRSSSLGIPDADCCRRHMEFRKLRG

Ki, ≤ 100 nM:
COc1cccc(F)c1-c1nccc(C(=O)Nc2ccc3c(ccn3CC3CCCCO3)c2N2C[C@@H]3C[C@H]2CN3)n1 (stereo partly drawn) [Example 41, N-(4-((1S,4S)-2,5-Diazabicyclo[2.2.1]heptan-2-yl)-1-((tetrahydro-2H-pyran-2-yl)methyl)-1H-indol-5-yl)-2-(2-fluoro-6-methoxyphenyl)pyrimidine-4-carboxamide]
COc1cccc(F)c1-c1nccc(C(=O)Nc2ccc3c(ncn3C)c2N2CCC[C@H]2CN)n1 [Example 28, (S)—N-(4-(2-(Aminomethyl)pyrrolidin-1-yl)-1-methyl-1H-benzo[d]imidazol-5-yl)-2-(2-fluoro-6-methoxyphenyl)pyrimidine-4-carboxamide]
COc1cccc(F)c1-c1nccc(C(=O)Nc2ccc3c(ccn3-c3cccc(F)c3C#N)c2N2C[C@@H](N)C[C@H]2CO)n1 [Example 47, N-(4-((2S,4S)-4-Amino-2-(hydroxymethyl)pyrrolidin-1-yl)-1-(2-cyano-3-fluorophenyl)-1H-indol-5-yl)-2-(2-fluoro-6-methoxyphenyl)pyrimidine-4-carboxamide]

Reference: patent US11299473B2, “Benzimidazole and indole compounds and uses thereof” (Incyte Corporation, priority 2018, dated 2022)
